Results as given in US8293462B2, “Method of preserving early mammalian embryos by vitrification” (Central Institute for Experimental Animals, priority 2005, dated 2012).

Test system: marmoset ES cells, cell line No. 40
Assay: Survival of ES cell clumps after thaw, cell line No. 40
Type: cell-based, common marmoset (Callithrix jacchus)
Conditions: FIG. 1
Description: As marmoset ES cells, two cell lines, i.e., No. 40 and No. 20, which were established by the Central Institute for Experimental Animals (Japan), were employed (Sasaki E. et al., 2005, Establishment of Novel Embryonic Stem Cell Lines Derived from the Common Marmoset (Callithrix jacchus), Stem Cells. (in press)). The cell clumps separated via trypsin treatment were recovered with an egg-sampling pipette and used in the preservation experiment.
In the method of preservation by vitrification according to the present invention, […] PB1, 10% propylene glycol, 30% ethylene glycol, 20% Percoll®(t, and 0.3 M sucrose were used. In thaw, the SPB1 solution comprising PB1 and 0.3 M sucrose was used.
In preservation of the control embryos by vitrification (Fujioka T. et al., Int. J. Dev. Biol. 48: 1149-1154), a DAP213 solution comprising PB1, 2 mol of DMSO, 1 mol of acetamide, and 3 mol of propylene glycol was used. In slow freezing (Reubinoff B. E. et al., Human Reprod. Vol. 16, No. 10, 2187-2194), the SF solution comprising 10% DMSO in FCS was used.
Subsequently, the cell clumps were introduced into a preservation tube (Nunc 375353) with 5 μl of P10, followed by cooling at 0° C. for 1 minute. Thereafter, 95 μl of PEPeS, which had been cooled to 0° C., was introduced into the tube. […]

Structure (SMILES): CC(O)CO (centres unmarked) [propylene glycol]
- survival rate after thaw compared with control that had not been preserved (pretreatment solution PB1 + 5% propylene glycol, 4 days after initiation of culture): significantly lower
- survival rate after thaw compared with control that had not been preserved (pretreatment solution PB1 + 15% propylene glycol, 4 days of culture): did not differ from the control embryos
